For assay [1], the system named is male adult uncastrated rats. Briefly: Dihydrotestosterone-induced hypertrophic growth of the prostatic gland in rats. To be noted: daily 50 mg dihydrotestosterone alone for three months. It counts as in vivo. The procedure: The weight of the prostate was 814 mg, which was equivalent to about 0.34 % of the total body weight. When the rats were simultaneously given a daily dosis of 100 µg of gibberellins GA₂₀ and GA₃₀, an increase in prostate weight was not detected. The weight of the prostate was in this case 582 mg, which was equivalent to 0.20 % of the total body weight.

The next assay deals with castrated rats. The conditions noted are these: C.R. Séances Soc. Biol. Filiales 163 (1969); cited from earlier work.

Turning to `C[C@]12CCC(=O)C[C@@H]1CC[C@@H]1[C@@H]2CC[C@]2(C)[C@@H](O)CC[C@@H]12` [dihydrotestosterone], in assay [1], the “weight of the prostate” value was determined as 814 mg and the “weight of the prostate, equivalent % of the total body weight” value is recorded as “about 0.34%”.
Regarding `C=C1C[C@]23C[C@@]1(O)CC[C@H]2[C@@]12C=C[C@H](O)[C@@](C)(C(=O)O1)[C@H]2[C@@H]3C(=O)O` [gibberellic acid], the prostate weight result in the assay with castrated rats was “restitution of prostate weight”.

The record behind these values is EP0504254B1, “THE USE OF GIBBERELLINS FOR THE MANUFACTURE OF A MEDICAMENT FOR THE TREATMENT OF PROSTATITIS” (ODEN, Per, priority 1989, dated 1991).
